This note sets out measurements from the OligoGym collection.

This data set addresses DGAT2. Conditions: ASO.

Several values for one entry are separate records, joined by “and”; a condition that tells them apart may be missing. Identical values can stand only once. After the bases stand the sugars from the 5' end (letter, count) and the backbone: PS all phosphorothioate, else s phosphorothioate and o phosphodiester by linkage. Methylation of C is not given here. e = 2'-O-(2-methoxyethyl) (MOE); d = 2'-deoxy (DNA)

The sequence “CTTCTTAAAAAAGACCTAAC (sugars e5 d10 e5, PS)” displayed a target mRNA inhibition (HepG2, 0.12 µM) of 26%.
Same read-out and setting: the figure for “GGCATGGAGCTCAGAGACTC (sugars e3 d14 e3, PS)” is 74%; for “GGTGGTCAGCAGGTTGTGTG (sugars e5 d10 e5, PS)” it is 29%.
For “GGTCTGGGAACAGCAGCATC (sugars e5 d10 e5, PS)”, the target mRNA inhibition runs as follows: (HepG2, 2.5 µM) 59%; (HepG2, 10 µM) 79%.
As to “GGCACAGAAAAGTGAGGCTT (sugars e5 d10 e5, PS)”, the target mRNA inhibition (HepG2, 0.12 µM) is 32%.
Consider “GCTTCACCAGGGCCTCCATG (sugars e5 d10 e5, PS)”, for which the target mRNA inhibition worked out at 31% (HepG2, 0.12 µM); 34% (HepG2, 2.5 µM); 57% (HepG2, 10 µM); 80% (HepG2, 20 µM).
“ACCAGGGCCTCCATGTACAT (sugars e5 d10 e5, PS)”: the target mRNA inhibition runs as follows: (HepG2, 2.5 µM) 30%; (HepG2, 10 µM) 32% and 50%; (HepG2, 20 µM) 48%.
As for “TTGCCACTCCCATTCTTTGA (sugars e5 d10 e5, PS)”, the target mRNA inhibition (HepG2, 0.12 µM) is 39% and 57%.
“AGGAGTTCTCGAATATCCCT (sugars e5 d10 e5, PS)”: the target mRNA inhibition (HepG2, 2.5 µM) is 55% and 50%; the target mRNA inhibition (HepG2, 10 µM) came to 87%.
For the sequence “CAGGACTTGGTACCTGATTC (sugars e5 d10 e5, PS)”, the target mRNA inhibition (HepG2, 0.12 µM) came out at 35%.
“CTTTTAAATAACCCACAGAC (sugars e5 d10 e5, PS)”: the target mRNA inhibition (HepG2, 0.12 µM) turned out to be 0%.
As for “ACCACTGTTGCTGAGCTCAT (sugars e5 d10 e5, PS)”, the target mRNA inhibition reads like this: (HepG2, 2.5 µM) 67%; (HepG2, 10 µM) 90%.
“ATAGCATTGCCACTCCCATT (sugars e2 d13 e5, PS)” gave a target mRNA inhibition (HepG2, 0.12 µM) of 57%.
On the same count and under the same terms, under “GAGCTCAGAGACTCAGCCGC (sugars e5 d10 e5, PS)” stands 81%; under “TTAAGCTTTGTGACCTTGGG (sugars e5 d10 e5, PS)”, 67%.
Same read-out and setting: under “GCTCACTTCTGTGGCCTCTG (sugars e5 d10 e5, PS)” stands 41%; under “AAGGCCAGGCCCCTTCTGAA (sugars e5 d10 e5, PS)”, 32%; under “GGTGGGAAACTTGGAAACTT (sugars e5 d10 e5, PS)”, 37%.
On the same count and under the same terms, under “TCAGCCTAGAGGCCCTGGAC (sugars e5 d10 e5, PS)” stands 26%; under “AGGGCCAGTTTCACAAAGCC (sugars e5 d10 e5, PS)”, 33%.
Regarding “TAGAGGTTTACTGCATAGCT (sugars e5 d10 e5, PS)”, the target mRNA inhibition reads like this: (HepG2, 2.5 µM) 84% and 72%; (HepG2, 10 µM) 85% and 92%.
“AGGACCCCGGAGTAGGCGGC (sugars e3 d14 e3, PS)” gave a target mRNA inhibition (HepG2, 0.12 µM) of 76%.
As to “ATCCAATGCACCTTGTATTA (sugars e5 d10 e5, PS)”, the target mRNA inhibition runs as follows: (HepG2, 2.5 µM) 57%; (HepG2, 10 µM) 93%.
Where the note is “HepG2, 0.12 µM”, “GCGCCACACAGCCCAGTTTC (sugars e5 d10 e5, PS)” came in with a target mRNA inhibition of 31%.
On the same count and under the same terms, under “CATTGCCACTCCCATTCTTT (sugars e5 d10 e5, PS)” stands 44%.
Regarding “TTTCCTTTGAAATCCAATGC (sugars e5 d10 e5, PS)”, the target mRNA inhibition is, setting by setting: (HepG2, 2.5 µM) 69%; (HepG2, 10 µM) 90%.
Sequence “ATCCAAAGATATAGTTCCTG (sugars e5 d10 e5, PS)” yielded a target mRNA inhibition (HepG2, 0.12 µM) of 39%.
In the case of “AAAATCCATGTCAGAGAGGC (sugars e5 d10 e5, PS)”, the target mRNA inhibition runs as follows: (HepG2, 2.5 µM) 64%; (HepG2, 10 µM) 90%.
The matching figures for “TAACCACAGCGATAATCACA (sugars e5 d10 e5, PS)”: 60% and 93%.
In turn, “CAGGCCACTCCCAGTACAAG (sugars e5 d10 e5, PS)” had a target mRNA inhibition (HepG2, 0.12 µM) of 1%.
“GAGCTTCACCAGGGCCTCCA (sugars e5 d10 e5, PS)”: the target mRNA inhibition runs as follows: (HepG2, 0.12 µM) 52%; (HepG2, 10 µM) 74% and 79%; (HepG2, 20 µM) 83% and 88%.
Turning to “CTCAGAGACTCAGCCGCACC (sugars e3 d14 e3, PS)”, the target mRNA inhibition (HepG2, 0.12 µM) amounted to 70%.
On the same count and under the same terms, under “GAAAGTAGTCTCGAAAGTAG (sugars e5 d10 e5, PS)” stands 0%.
Turning to “CACAGTTAAAGTGTGGTACA (sugars e5 d10 e5, PS)”, the target mRNA inhibition reads like this: (HepG2, 2.5 µM) 52%; (HepG2, 10 µM) 88%.
For “TGGCTTCCTCAGGGCCCACC (sugars e5 d10 e5, PS)”, the target mRNA inhibition (HepG2, 2.5 µM) came out at 79% and the target mRNA inhibition (HepG2, 10 µM) was found to be 87%.
Where the note is “HepG2, 0.12 µM”, “TCCCATTCTTTGAAAGCAAA (sugars e5 d10 e5, PS)” displayed a target mRNA inhibition of 31%.
Turning to “GCCAATGCCTAGGTCAC (sugars e3 d10 e4, PS)”, the target mRNA inhibition was 85% and 93% (HepG2, 2.5 µM); 79% and 93% (HepG2, 10 µM).
“CAGGGTCTGCCACTCTCTAC (sugars e5 d10 e5, PS)”: the target mRNA inhibition reads like this: (HepG2, 2.5 µM) 56%; (HepG2, 10 µM) 85%.
For “CAGGGCCTCCATGTACATGG (sugars e5 d10 e5, PS)”, for the setting “HepG2, 0.12 µM”, the target mRNA inhibition amounted to 37%.
The same measure, in the same setting: under “CAGAAGGCACCCAGGCCCAT (sugars e5 d10 e5, PS)” stands 33%.
For the sequence “CTTAAGGCAAAGTAACATAC (sugars e5 d10 e5, PS)”, the target mRNA inhibition runs as follows: (HepG2, 2.5 µM) 48% and 57%; (HepG2, 10 µM) 75% and 96%.
With “AGGCAAAGTAACATACCTGC (sugars e5 d10 e5, PS)”, the target mRNA inhibition runs as follows: (HepG2, 2.5 µM) 71% and 74%; (HepG2, 10 µM) 94% and 91%.
With “CCACTGTTGCTGAGCTCATG (sugars e5 d10 e5, PS)”, the target mRNA inhibition (HepG2, 2.5 µM) turned out to be 68% and the target mRNA inhibition (HepG2, 10 µM) was found to be 88%.
As to “GGTTATTGCAACCACTAGGA (sugars e5 d10 e5, PS)”, the target mRNA inhibition is, setting by setting: (HepG2, 2.5 µM) 80%; (HepG2, 10 µM) 91%.
On to “GACAATGAGTAAGGGTATTC (sugars e5 d10 e5, PS)”, for which the target mRNA inhibition (HepG2, 2.5 µM) came to 48% and the target mRNA inhibition (HepG2, 10 µM) came out at 83%.
Regarding “TGGATGGGAAAGTAGTCTCG (sugars e5 d10 e5, PS)”, the target mRNA inhibition (HepG2, 0.12 µM) was 40%.
Consider “TGTGTGACCTTGGGCAAGTT (sugars e5 d10 e5, PS)”, for which the target mRNA inhibition runs as follows: (HepG2, 2.5 µM) 61% and 57%; (HepG2, 10 µM) 78% and 88%.
“CCTCGATGTTACATTAAGGG (sugars e5 d10 e5, PS)”: the target mRNA inhibition is 82% and 88% (HepG2, 2.5 µM); 86% and 90% (HepG2, 10 µM).
“CTCACCCCTGTACTCAGCCC (sugars e5 d10 e5, PS)” had a target mRNA inhibition (HepG2, 2.5 µM) of 72% and a target mRNA inhibition (HepG2, 10 µM) of 88%.
The matching figures for “GCATAGCTGAGCAAATCCAT (sugars e5 d10 e5, PS)”: 69% and 85%.
As for “GGACCCACTGGAGCACTGAG (sugars e5 d10 e5, PS)”, the target mRNA inhibition is, setting by setting: (HepG2, 0.12 µM) 84%; (HepG2, 2.5 µM) 14%; (HepG2, 10 µM) 47%; (HepG2, 20 µM) 73%.
Consider “GGCAGATCTTCATTACATGA (sugars e5 d10 e5, PS)”, for which the target mRNA inhibition (HepG2, 2.5 µM) was 75% and 70%; the target mRNA inhibition (HepG2, 10 µM) was 80% and 78%.
Consider “GGTGAATAGCTATGTCTAAA (sugars e5 d10 e5, PS)”, for which the target mRNA inhibition was 70% and 55% (HepG2, 2.5 µM); 91% and 85% (HepG2, 10 µM).
